# Results taken from the OPERA property sets (Mansouri et al. 2018).
# Conditions: not given
Compound,melting point,log10 Koc (L/kg),log10 vapour pressure (mmHg),boiling point,ready biodegradability,log10 biodegradation half-life (days),log10 Koa,log10 Henry constant (atm·m³/mol)
Cc1ccnc(NS(=O)(=O)c2ccc(N)cc2)n1,236 °C,–,–,–,–,–,–,–
O=P(O)(O)CCCl,74.2 °C,0,-7.01,–,–,–,–,–
CNc1ccc(NCCO)c2c1C(=O)c1ccccc1C2=O,187 °C,–,–,–,–,–,–,–
CCCC=C(CCCC)CCCC,–,–,–,216 °C,–,–,–,–
Nc1cc(C(Cl)=C(Cl)Cl)c(S(N)(=O)=O)cc1S(N)(=O)=O,203 °C,–,–,–,–,–,–,–
c1ccc(Nc2ccc(-c3ccc(Nc4ccccc4)cc3)cc2)cc1,247 °C,–,–,–,–,–,–,–
Nc1c2ccccc2nc2ccccc12,241 °C,–,–,–,–,–,–,–
COc1ccc(C(=O)c2ccccc2)cc1,61.5 °C,–,–,355 °C,–,–,–,–
"Cc1ccccc1CO[C@H]1C[C@]2(C(C)C)CC[C@@]1(C)O2 (single isomer, unassigned)",–,2.6,-4.12,313 °C,–,–,–,–
CCCCCCCC/C=C\CCCCCCCCO,–,–,–,–,readily biodegradable,–,–,–
Nc1ccccc1Oc1ccccc1,45.8 °C,–,–,308 °C,–,–,–,–
O=[N+]([O-])c1cc(Cl)c(O)c(Cl)c1,127 °C,–,–,–,–,–,–,–
CCc1cccc(C(C)C)c1,–,–,–,192 °C,–,–,–,–
CO[C@H]1C=CC2=CCN3CCC4=C(CC(=O)OC4)[C@]23C1,99.5 °C,–,–,–,–,–,–,–
ClC1CCCC1,–,–,–,114 °C,–,–,–,–
CC1(C)[C@H](C(=O)O[C@H](C#N)c2cccc(Oc3ccccc3)c2)[C@@H]1C=C(Br)Br,100 °C,–,-7.82,–,–,–,–,–
CCCCCCCCSC#N,105 °C,–,–,–,–,–,–,–
CCCCOC(=O)CCl,–,–,–,183 °C,–,–,–,–
O=c1cccc[nH]1,108 °C,–,–,280 °C,readily biodegradable,–,–,–
C[C@H](NC(=O)COC(=O)c1ccccc1)C(N)=O,202 °C,–,–,–,–,–,–,–
Cc1nn(-c2cc(NS(C)(=O)=O)c(Cl)cc2Cl)c(=O)n1C(F)F,122 °C,–,-9.01,–,–,–,–,–
CCCC(C)C(CC)CC (stereo not given),–,–,–,165 °C,–,–,–,–
CCOC(=O)c1ccccc1C(=O)c1ccccc1,59.5 °C,–,–,–,–,–,–,–
CCCCC(CC)CO[Si](OCC(CC)CCCC)(OCC(CC)CCCC)OCC(CC)CCCC (stereo not given),–,–,–,419 °C,–,–,–,–

Compound,melting point,log10 Koc (L/kg),log10 vapour pressure (mmHg),boiling point,ready biodegradability,log10 biodegradation half-life (days),log10 Koa,log10 Henry constant (atm·m³/mol)
CN1CC(C(=O)O)CC1=O (stereo not given),152 °C,–,–,–,–,–,–,–
CCOC(=O)C1CC(=O)C(=C(O)C2CC2)C(=O)C1 (stereo not given),36 °C,–,-4.79,–,–,–,–,–
COc1ccc(C(=O)c2ccccc2)c(O)c1,65.5 °C,–,–,–,not readily biodegradable,–,–,–
CCC(Br)CBr (stereo not given),-65.4 °C,–,0.491,166 °C,–,–,–,–
O=S(Cc1ccccc1)Cc1ccccc1,134 °C,–,–,–,–,–,–,–
CC(C)(C1CCCCC1)C1CCCCC1,15.6 °C,–,–,286 °C,–,–,–,–
N[C@@H](CSCC(=O)O)C(=O)O,206 °C,–,–,–,–,–,–,–
COc1ccc(Cl)c(N)c1,27 °C,–,–,–,–,–,–,–
O=c1[nH]c(=O)n([C@H]2C[C@H](O)[C@@H](CO)O2)cc1C(F)(F)F,188 °C,–,–,–,–,–,–,–
CC1CCCC1,-142 °C,–,2.14,71.8 °C,–,0.602,–,–
FCc1ccccc1,-35 °C,–,0.832,140 °C,–,–,–,–
O=C(c1ccccc1)C(F)(F)F,-40 °C,–,–,153 °C,–,–,–,–
Cc1csc(NS(=O)(=O)c2ccc(N)cc2)n1,237 °C,–,–,–,–,–,–,–
C=C(Cl)CC,–,–,–,58.5 °C,–,–,–,–
COP(=O)(OC)O/C(C)=C/C(=O)OC(C)c1ccccc1 (stereo not given),–,2,-4.85,–,–,–,–,–
CSc1ncnc2c1ncn2[C@@H]1O[C@H](CO)[C@@H](O)[C@H]1O,164 °C,–,–,–,–,–,–,–
CCOC(=O)COc1cccc2ccccc12,56.5 °C,–,–,–,–,–,–,–
CO[C@H]1C=CO[C@@]2(C)Oc3c(C)c(O)c4c(O)c(cc(O)c4c3C2=O)NC(=O)C(C)=CC=C[C@H](C)[C@H](O)[C@@H](C)[C@@H](O)[C@@H](C)[C@H](OC(C)=O)[C@@H]1C,300 °C,–,–,–,–,–,–,–
c1ccc2sc(SNC3CCCCC3)nc2c1,98 °C,–,–,–,not readily biodegradable,–,–,–
COP(=O)(OC)OC(Br)C(Cl)(Cl)Br (stereo not given),27 °C,2.26,-3.7,–,–,–,–,–
CCSC#N,-85.5 °C,–,–,146 °C,–,–,–,–
CCCCCC(O)(CC)CC,–,–,–,199 °C,–,–,–,–
Clc1ccccc1NNc1ccccc1Cl,–,–,–,–,not readily biodegradable,–,–,–
CC(CCC(=O)O)(c1ccc(O)cc1)c1ccc(O)cc1,172 °C,–,–,–,–,–,–,–

Compound,melting point,log10 Koc (L/kg),log10 vapour pressure (mmHg),boiling point,ready biodegradability,log10 biodegradation half-life (days),log10 Koa,log10 Henry constant (atm·m³/mol)
CCCCNC(N)=O,97 °C,–,–,–,–,–,–,–
Clc1ccc2c(Cl)cc(Cl)c(Cl)c2c1,–,–,-5.07,–,–,–,8.13,–
O=C(O)c1ccccc1F,126 °C,–,–,–,–,–,–,–
CCCCCCCCC[C@H](O)CC,25 °C,–,–,–,–,–,–,–
CCCCCON=O,–,–,0.598,104 °C,–,–,–,–
CCCCCCC(=O)OCCCCC,-50 °C,–,–,245 °C,–,–,–,–
Cc1c(O)c(Br)c(Br)c(Br)c1Br,208 °C,–,–,–,–,–,–,–
NNC(=O)NN,154 °C,–,–,–,–,–,–,–
OC[C@H]1O[C@H](O[C@]2(CCl)O[C@H](CCl)[C@@H](O)[C@@H]2O)[C@H](O)[C@@H](O)[C@H]1Cl,130 °C,–,–,–,–,–,–,–
CN(C)CCc1ccc(O)cc1,118 °C,–,–,–,–,–,–,–
C=CC(=O)OCCCCCC,-45 °C,–,–,–,readily biodegradable,–,–,–
O=C(O)CCCCCCC[C@H](O)[C@H](O)CCCCCCO,100 °C,–,–,–,–,–,–,–
O=[N+]([O-])c1ccc(CCO)cc1,63 °C,–,–,–,–,–,–,–
COc1cc(Cl)c(Cl)c(Cl)c1Cl,84 °C,–,–,–,–,–,–,–
c1ccc2c(c1)Cc1ccccc1O2,100 °C,–,–,311 °C,–,–,–,–
C[Si](C)(C)O[Si](C)(C)O[Si](C)(C)O[Si](C)(C)O[Si](C)(C)O[Si](C)(C)O[Si](C)(C)C,-78 °C,–,-2.5,270 °C,–,–,–,–
c1ccc(C2(c3ccccc3)CC2C2=NCCN2)cc1 (stereo not given),104 °C,–,–,–,–,–,–,–
CCC(C)(C)OC,–,–,1.88,86.3 °C,–,–,–,-2.88
CCOC(=O)C(O)(c1ccc(Cl)cc1)c1ccc(Cl)cc1,37 °C,3.3,-5.66,–,not readily biodegradable,–,–,–
Cc1cc2ccccc2[nH]1,61 °C,–,–,272 °C,–,–,–,–
CCCCCCC(C)OC(=O)COc1nc(F)c(Cl)c(N)c1Cl (stereo not given),59 °C,–,-8,–,–,–,–,–
C1CCC2CCCCC2C1 (stereo not given),-38.7 °C,3.67,0.114,180 °C,not readily biodegradable,–,–,–
CC(=O)Nc1ccc(S(=O)(=O)Nc2ccc([N+](=O)[O-])cc2)cc1,240 °C,–,–,–,–,–,–,–
O=C(NO)c1ccccc1,128 °C,–,–,–,–,–,–,–

Compound,melting point,log10 Koc (L/kg),log10 vapour pressure (mmHg),boiling point,ready biodegradability,log10 biodegradation half-life (days),log10 Koa,log10 Henry constant (atm·m³/mol)
C=C(C)[C@@H]1CC[C@]2(CO)CC[C@]3(C)[C@H](CC[C@@H]4[C@@]5(C)CC[C@H](O)C(C)(C)[C@@H]5CC[C@]43C)[C@@H]12,250 °C,–,–,–,–,–,–,–
CCOC(=O)c1ccc2c(c1)OCO2,18.5 °C,–,–,286 °C,–,–,–,–
Cc1ncc[nH]1,144 °C,–,–,267 °C,not readily biodegradable,–,–,–
CCc1ccc(C)cc1C,-62.9 °C,–,-0.0685,188 °C,–,0.602,–,–
CN(C)c1ccccc1N(C)C,8.9 °C,–,–,216 °C,–,–,–,–
COc1ccc(-c2ccccc2)cc1NNC(=O)OC(C)C,122 °C,–,–,–,–,–,–,–
CCCCN(CCO)CCO,–,–,–,275 °C,–,–,–,–
CC(=O)S[C@@H]1CC2=CC(=O)CC[C@]2(C)[C@H]2CC[C@@]3(C)[C@@H](CC[C@@]34CCC(=O)O4)[C@H]12,208 °C,–,–,–,–,–,–,–
Cc1nc2ccccc2[nH]1,176 °C,–,–,–,–,–,–,–
CCCCOCCC,–,–,–,118 °C,–,–,–,–
C=CC(O)CC (stereo not given),–,–,–,115 °C,–,–,–,–
CCC1OCC(COc2ccc(Oc3ccccc3)cc2)O1 (stereo not given),–,–,-6.08,–,–,–,–,–
CCCCCCC(=O)OCCCC,-67.5 °C,–,–,226 °C,–,–,–,–
O=C1C(Cl)=C(Cl)C(=O)N1c1ccc(F)cc1,241 °C,–,–,–,–,–,–,–
CC(=O)Nc1nc(=O)c2ncn(COCCOC(C)=O)c2[nH]1,204 °C,–,–,–,–,–,–,–
CCCCNCC(O)c1ccc(O)cc1 (stereo not given),124 °C,–,–,–,–,–,–,–
Cc1cccc2ccc(Cl)nc12,61 °C,–,–,287 °C,–,–,–,–
O=C(c1ccccc1)c1ccccc1C(F)(F)F,61 °C,–,–,–,–,–,–,–
CCOC(=O)CN1CCN(C(=O)/C=C\c2cc(OC)c(OC)c(OC)c2)CC1,96 °C,–,–,–,–,–,–,–
Oc1c(F)c(F)c(F)c(F)c1F,32.8 °C,–,0.464,146 °C,–,–,–,–
CCCCCCCCCCCCCC(=O)OC(C)C,3 °C,–,-4.03,–,–,–,–,–
Sc1ccccn1,129 °C,–,–,–,–,–,–,–
CCCCCCCCCC(Br)C(=O)O (stereo not given),10 °C,–,–,–,–,–,–,–

# Same assay, conditions: fish
Compound,log10 BCF,log10 biotransformation half-life (days)
CC1(C)[C@H](C(=O)O[C@H](C#N)c2cccc(Oc3ccccc3)c2)[C@@H]1C=C(Br)Br,2.51,0.51
COc1ccc(C(=O)c2ccccc2)c(O)c1,1.97,–
Clc1ccccc1NNc1ccccc1Cl,3.66,–
COc1cc(Cl)c(Cl)c(Cl)c1Cl,3.67,–
CCOC(=O)C(O)(c1ccc(Cl)cc1)c1ccc(Cl)cc1,2.68,-0.08
CCCCCCC(C)OC(=O)COc1nc(F)c(Cl)c(N)c1Cl (stereo not given),–,-0.61
C1CCC2CCCCC2C1 (stereo not given),3.25,–
